What all share (type): functional
Assay [1] deals with SNB-19. In words: Antiproliferative activity against human SNB19 cells assessed as inhibition of cell growth measured after 48 hrs by SRB assay. As to conditions: SNB-19, 48 h. A general note: The SRB assay estimates cell density from bound dye.
A further assay concerns RXF 393. Nature of the assay: Antiproliferative activity against human RXF393 cells assessed as inhibition of cell growth measured after 48 hrs by SRB assay. As to conditions: RXF 393, 48 h.
The subject of a further assay is SN12C. Nature of the assay: Antiproliferative activity against human SN12C cells assessed as inhibition of cell growth measured after 48 hrs by SRB assay.
A further assay deals with UACC-62. In words: Antiproliferative activity against human UACC62 cells assessed as inhibition of cell growth at 10 uM measured after 48 hrs by SRB assay relative to control. As to conditions: UACC-62, 48 h, read-out: GI.
A further assay concerns SF-539. In words: Antiproliferative activity against human SF539 cells assessed as inhibition of cell growth measured after 48 hrs by SRB assay. As to conditions: SF-539, 48 h.
The subject of the next assay is SK-MEL-5. In words: Antiproliferative activity against human SK-MEL-5 cells assessed as inhibition of cell growth measured after 48 hrs by SRB assay. The following applies: SK-MEL-5, 48 h.
A further assay concerns HT-29. In words: Antiproliferative activity against human HT-29 cells assessed as inhibition of cell growth measured after 48 hrs by SRB assay. The following applies: HT-29, 48 h.
Assay [2] relates to SNB-19. In words: Antiproliferative activity against human SNB19 cells assessed as inhibition of cell growth at 10 uM measured after 48 hrs by SRB assay relative to control. As to conditions: SNB-19, 48 h, read-out: GI.
The next assay has as its system MCF7. Nature of the assay: Antiproliferative activity against human MCF7 cells assessed as inhibition of cell growth measured after 48 hrs by SRB assay. The following applies: MCF7, 48 h.
The test system of assay [3] is SNB-75. Nature of the assay: Antiproliferative activity against human SNB75 cells assessed as inhibition of cell growth at 10 uM measured after 48 hrs by SRB assay relative to control. As to conditions: SNB-75, 48 h, read-out: GI.
Another assay has as its system OVCAR-8. In words: Antiproliferative activity against human OVCAR8 cells assessed as inhibition of cell growth measured after 48 hrs by SRB assay. The following applies: OVCAR-8, 48 h.
Another assay concerns SW-620. In words: Antiproliferative activity against human SW620 cells assessed as inhibition of cell growth at 10 uM measured after 48 hrs by SRB assay relative to control. The following applies: SW-620, 48 h, read-out: GI.
In a further assay the test system is NCI-H23. In words: Antiproliferative activity against human NCI-H23 cells assessed as inhibition of cell growth measured after 48 hrs by SRB assay. The following applies: NCI-H23, 48 h.
In the next assay the test system is HCT-116. In words: Antiproliferative activity against human HCT116 cells assessed as inhibition of cell growth at 10 uM measured after 48 hrs by SRB assay relative to control. The following applies: HCT-116, 48 h, read-out: GI.
Assay [4] relates to SNB-75. Nature of the assay: Antiproliferative activity against human SNB75 cells assessed as inhibition of cell growth measured after 48 hrs by SRB assay. As to conditions: SNB-75, 48 h.
The test system of the next assay is CAKI-1. Nature of the assay: Antiproliferative activity against human CAKI-1 cells assessed as inhibition of cell growth measured after 48 hrs by SRB assay. The following applies: CAKI-1, 48 h.
A further assay concerns KM12. Nature of the assay: Antiproliferative activity against human KM12 cells assessed as inhibition of cell growth measured after 48 hrs by SRB assay. The following applies: KM12, 48 h.
The test system of another assay is NCI/ADR-RES. Nature of the assay: Antiproliferative activity against human NCI-ADR-RES cells assessed as inhibition of cell growth at 10 uM measured after 48 hrs by SRB assay relative to control. As to conditions: read-out: GI.
For a further assay, the system named is SF-295. Nature of the assay: Antiproliferative activity against human SF295 cells assessed as inhibition of cell growth at 10 uM measured after 48 hrs by SRB assay relative to control. As to conditions: SF-295, 48 h, read-out: GI.
The next assay relates to ACHN. Nature of the assay: Antiproliferative activity against human ACHN cells assessed as inhibition of cell growth at 10 uM measured after 48 hrs by SRB assay relative to control. The following applies: read-out: GI.
The subject of another assay is Malme-3M. Nature of the assay: Antiproliferative activity against human MALME-3M cells assessed as inhibition of cell growth measured after 48 hrs by SRB assay.
The next assay concerns SF-268. In words: Antiproliferative activity against human SF268 cells assessed as inhibition of cell growth measured after 48 hrs by SRB assay. The following applies: SF-268, 48 h.
A further assay relates to SK-MEL-28. In words: Antiproliferative activity against human SK-MEL-28 cells assessed as inhibition of cell growth measured after 48 hrs by SRB assay. As to conditions: SK-MEL-28, 48 h.
A further assay concerns OVCAR-4. In words: Antiproliferative activity against human OVCAR4 cells assessed as inhibition of cell growth measured after 48 hrs by SRB assay. As to conditions: OVCAR-4, 48 h.
In a further assay the test system is HOP-92. Nature of the assay: Antiproliferative activity against human HOP92 cells assessed as inhibition of cell growth measured after 48 hrs by SRB assay. The following applies: HOP-92, 48 h.
Another assay relates to TK-10. Nature of the assay: Antiproliferative activity against human TK10 cells assessed as inhibition of cell growth measured after 48 hrs by SRB assay. As to conditions: TK-10, 48 h.

Usually GI50 stands for the concentration at which growth is held to half of that of the control. For the compound `COc1ccc2nc3c(cc2c1)C(=O)CC(C(F)(F)F)C3` (stereo not given), the GI50 with SNB-19 [1] is 3610 nM; in the assay on RXF 393, 562 nM; in the assay with SN12C it was 823 nM; in the assay on SF-539, 1890 nM; with SK-MEL-5 it was 411 nM; in the assay with HT-29 it was 387 nM. Moreover, the GI50 in the assay with MCF7 is 3420 nM; with OVCAR-8, 2040 nM; in the assay with NCI-H23, 5150 nM; in the assay on SNB-75 [4] it was 2160 nM; in the assay on CAKI-1 it was 690 nM; with KM12, 316 nM. Also, the inhibition of growth at 10 µM in the assay on UACC-62 was 60.2%; in the assay with SNB-19 [2], 49.7%; in the assay with SNB-75 [3], 92.1%; in the assay on SW-620 it was 58.5%; in the assay with HCT-116 it was 88.1%; in the assay on NCI/ADR-RES, 81.1%. Moreover, the inhibition of growth at 10 µM amounted to 54.7% in the assay with SF-295 and 50.8% in the assay with ACHN.

Turning to `O=C1CC(c2ccccc2)Cc2nc3ccc(Br)cc3cc21` (stereo not given), the concentration for 50% growth inhibition (GI50) worked out at 434 nM with SNB-19 [1]; 208 nM in the assay with RXF 393; 526 nM in the assay on SN12C; 241 nM in the assay with SF-539; 288 nM in the assay with SK-MEL-5; 205 nM in the assay on HT-29. The GI50 stood at 2760 nM in the assay with MCF7; 461 nM in the assay on OVCAR-8; 616 nM in the assay on NCI-H23; 210 nM with SNB-75 [4]; 94.9 nM in the assay on Malme-3M; 207 nM in the assay on CAKI-1. For the same compound, the results for the concentration for 50% growth inhibition (GI50) in the assay with KM12, with SF-268 and in the assay with SK-MEL-28 were 341 nM, 3450 nM and 954 nM, respectively. Moreover, the inhibition of growth at 10 µM is 63.8% in the assay with UACC-62; 72.6% in the assay on SNB-19 [2]; 63.4% with SNB-75 [3]; 74.9% in the assay with SW-620; 94.4% in the assay with HCT-116; 82.9% in the assay on NCI/ADR-RES. Besides, the inhibition of growth at 10 µM in the assay with SF-295 was 82.8%; in the assay on ACHN, 65.7%.

Consider `COc1ccc2nc3c(cc2c1)C(=O)CC(c1ccccc1)C3` (stereo not given), for which the GI50 is 2620 nM in the assay on SNB-19 [1]; 440 nM in the assay on RXF 393; 639 nM in the assay with SN12C; 1150 nM with SF-539; 540 nM in the assay with SK-MEL-5; 428 nM in the assay with HT-29. The 50% growth inhibitory concentration (GI50) in the assay with MCF7 is 3490 nM; with OVCAR-8, 1060 nM; with NCI-H23, 6180 nM; in the assay on SNB-75 [4], 572 nM; in the assay with CAKI-1 it was 525 nM; in the assay on KM12 it was 450 nM. Moreover, the inhibition of growth at 10 µM with UACC-62 came to 63.1%; in the assay with SNB-19 [2] it was 65.7%; in the assay on SNB-75 [3], 109%; in the assay with SW-620, 82.2%; in the assay with HCT-116 it was 88.9%; in the assay with NCI/ADR-RES it was 86.8%. In addition, the values for the inhibition of growth at 10 µM in the assay with SF-295 and in the assay on ACHN were 69% and 56.1%, respectively.

Turning to `O=C1CC(c2ccccc2)Cc2nc3c(Br)cc(Br)cc3cc21` (stereo not given), the 50% growth inhibitory concentration (GI50) in the assay on SNB-19 [1] was determined as 406 nM; with RXF 393 it was 91.6 nM; with SN12C, 661 nM; with SF-539, 192 nM; with SK-MEL-5 it was 298 nM; in the assay with HT-29, 233 nM. The 50% growth inhibitory concentration (GI50) with MCF7 amounted to 382 nM; in the assay with OVCAR-4, 1410 nM; in the assay with OVCAR-8, 507 nM; in the assay with HOP-92, 66.8 nM; with NCI-H23 it was 260 nM; in the assay with SNB-75 [4], 199 nM. Further, the 50% growth inhibitory concentration (GI50) in the assay on Malme-3M came to 119 nM; in the assay on CAKI-1, 145 nM; with KM12, 242 nM; in the assay on TK-10, 700 nM; in the assay with SF-268, 167 nM; with SK-MEL-28, 478 nM. Moreover, the inhibition of growth at 10 µM in the assay on UACC-62 was 61.7%; with SNB-19 [2] it was 65.2%; with SNB-75 [3] it was 64.8%; in the assay on SW-620, 77.6%; with HCT-116, 93.8%; with NCI/ADR-RES, 113%. The values for the inhibition of growth at 10 µM in the assay with SF-295 and in the assay with ACHN were 132% and 70.3%, respectively.

For the compound `O=C1CC(c2ccccc2)Cc2nc3ccc(Cl)cc3cc21` (stereo not given), the 50% growth inhibitory concentration (GI50) in the assay on SNB-19 [1] was determined as 425 nM; with RXF 393, 195 nM; with SN12C it was 533 nM; in the assay on SF-539, 219 nM; in the assay on SK-MEL-5, 203 nM; in the assay with HT-29, 271 nM. Further, the GI50 in the assay with MCF7 came out at 2550 nM; with OVCAR-8, 534 nM; in the assay with NCI-H23, 517 nM; in the assay on SNB-75 [4], 215 nM; in the assay with CAKI-1 it was 151 nM; in the assay with KM12, 349 nM. Besides, the concentration for 50% growth inhibition (GI50) in the assay with SK-MEL-28 turned out to be 1690 nM. Also, the inhibition of growth at 10 µM was 70.7% in the assay with UACC-62; 75% in the assay with SNB-19 [2]; 70.3% in the assay with SNB-75 [3]; 77% with SW-620; 94.5% in the assay on HCT-116; 92% in the assay on NCI/ADR-RES. Further, the figures for the inhibition of growth at 10 µM in the assay with SF-295 and in the assay on ACHN were 103% and 69.2%, respectively.
